Measurements taken from patent publication US20110117120A1, “Plasmodium falciparum HLA class I restricted T-cell epitopes” (priority 2009, published 2011).
“Also recorded” adds a separate entry of the source. No end group written: not given here.

Columns and labels:
Assay type in all cases: cell-based, human
[1] = system: CD4+ and CD8+ T cells of PBMC; experiment: Intracellular cytokine staining (ICS) of CD4+ and CD8+ T cells; conditions: for CD8^+ T cell IFN-γ response in ICS: HLA-matched volunteers, FIG. 1 upper panel; for multifunctional CD8^+ T cell responses in ICS: v008 and v012, any two of IFN-γ, IL-2, TNF-α, FIG. 1 lower panel
Method: ICS was performed on PBMCs with costimulatory antibodies anti-CD28 and […] (obtained from BD Bioscience™, San Jose, Calif.). The peptides were used at the same concentrations as in ELISpot assays. Stimulants were added t cells and incubated at 37° C. with 5% CO2 for 2 hr. Golgi Plug™ (Brefeldin A) (BD Bioscience™, San Jose, Calif.) was added at a final concentration of 0.6 μL/mL and incubated at 37° C. with 5% CO2 overnight. Cells were stained with anti-CD3 (Alexa Fluor 700™), anti-CD4 (PerCP™), and anti-CD8 Pacific Blue™ (obtained from BD Bioscience™, San Jose, Calif.). and 1 μg/mL of live/dead fixable blue dye, incubated and washed. Cells were permeabilized with Cytofix/Cytoperm™ solution (obtained from BD Bioscience™, San Jose, Calif.), incubated and washed. Cells were stained intracellularly with anti-CD3 ([…]), anti-CD4 (PerCP™), and anti-CD8 Pacific Blue™, anti-IFN-γ FITC, anti-TNF PE, and anti-IL2 APC, incubated and washed. Cells were resuspended and the entire available sample was acquired by flowcytometry. The gating strategy included progressively measuring total cells; viable cells only; lymphocytes; T cells; CD4^+ CD8^+ populations; and a specific cell type expressing a specific cytokine. Histograms were used to determine the total production of IFN-γ, IL2, and TNF for the CD4^+ and CD8^+ populations. Boolean gates were used to determine cells producing combinations of cytokines.
In these studies, T cells containing IFN-γ, IL2, or TNFα, were gated into different subsets: IFN-γ+, IL2+, TNFα−; IFN-γ+, IL2-, TNFα+; IFN-γ+, IL2+, TNFα+; or IFN-γ+, IL2−, TNFα− T cells, and stimulated with the predicted epitopes and their parent peptide pool. The frequency of CD8^+ T cells producing total IFN-γ was far greater than CD4^+ T cell responses (FIG. 1, upper panel), which were extremely low.

PBMC [2] = experiment: ELISpot IFN-γ assay with PBMC of AdPfCA / DNA-primed volunteers (Example 2); conditions: 12 wk post challenge
Text: To more clearly define immunological active regions of AMA1, PBMCs were isolated from AMA1 immunized volunteers. Two groups of volunteers, i.e., Gp 1 (from example 1, above) and Gp2, received 2×10^10 particle units of AdPfCA (NMRC-M3V-Ad-PfCA, NMRC+Multi-antigen Multi-stage, Malaria Vaccine+Adenovector+P. falciparum CSP & AMA1 antigens). The vaccine is a combination of two separate recombinant Ad5 constructs, one expressing full length CSP and the other expressing full length apical membrane antigen 1 (AMA1). AdPfCA expressed the AMA1 regions A1 through A12. Twenty-eight (28) days later, PBMC's were collected.
In a third group (termed preCh in FIG. 7 and FIG. 8), fifteen volunteers were primed with three doses (2 mg/dose) with one month between doses. Sixteen weeks after the final DNA priming dose, each volunteer received 2×10^10 particle units of AdPfCA. PBMC's were collected on day 22-23 after receiving AdPfCA. The region of the AMA gene expressed by the DNA expression plasmid is also illustrated in FIG. 6. The DNA vaccine expressed approximately half of the A1 region of AMA1, the entire regions of A2 through A10 and a portion of A11. As in Gp 1 and Gp 2, AdPfCA expressed the AMA1 regions A1 through A12.
(§1) The stimulation of circulating antigen-specific T cell lymphocytes was evaluated by measurement of γ-IFN induction by ELISPOT. The ELISpot assay was conducted using thawed cryopreserved PBMC at 200 K cells per well. Pre-challenge cells were taken at day 21 and day 22 post AdPfCA vaccination. Cells were suspended in […] complete medium and were stimulated with AMA1 peptides suspended in […] of complete medium. Peptide concentrations used in assays was 10 μg/ml of each peptide tested. Cultures were incubated for 36 h at 37° C., 5% CO2. Depending on availability of cells, each PBMC sample was assayed in duplicate, triplicate, or quadruplicate and the number of IFN-γ-secreting cells recognized as spot-forming cells (SFC) was enumerated using an automated ELISpot reader. In duplicate assays, all values were used in analysis. For triplicate or quadruplicate assays, outliers were rejected if any single value contributed more than 50% of the standard deviation of the triplicate (or quadruplicate) and if its value was three-fold greater or less than the average of the remaining two (or three) values. The mean spot forming cells (SFCs) obtained in negative control wells were subtracted from the value of each test well from the same sample. Negative counts generated by this background subtraction were converted to zero. The mean spot number of the test sample was then calculated and expressed as SFC/million PBMCs. Values obtained with pre-vaccinated samples were subtracted from the post-vaccination values.
In a further study, volunteers were immunized with AdCA. […]

PBMC [3] = experiment: ELISpot IFN-γ assay with PBMC of Ad5-PfCA immunized volunteers (Example 1); conditions: threshold 40 SFC/million
Method: In order to assess the pools for their ability to induce T-cell responses, specifically CD 8^+ responses, PBMC, 1 month post immunization were used, from the five volunteers in Table 1, in ELISpot assays. In these studies, IFN-γ activity was measured in response to exposure to the peptide pools. The assays were conducted essentially as described by Wang, et al., Proc. Natl. Acad. Sci. (U.S.A.), 98: 10817-22.
as §1

[4] = system: CD8+ or CD4+ T-cell depleted PBMC; experiment: ELISpot IFN-γ assay after CD8+ or CD4+ T-cell depletion (Example 2, Table 6); conditions: for CD4^+ depletion % change / CD8^+ Depletion % change / CD4^+ depletion, test / CD8^+ Depletion, test / CD4^+ depletion, control / CD8^+ Depletion, control: Vol. 1550-11; for CD4^+ depletion, test: CD4+ depleted; for CD8^+ Depletion, test: CD8+ depleted
Method: PBMC population depletion was conducted using anti-human CD4+ and anti-CD8^+ coated Dynabeads™ M-450 (Dynal, Great Neck, N.Y.) following the manufacturer's instructions. Mock depletion was done with Dynabeads coated with Sheep anti-mouse IgG. Flow cytometry confirmed that T-cell subset depletions were >99% in all experiments. The data is presented as the % effect (decrease) in activity after T cell subset depletion. […]
The results of this study, summarized in Table 6, identified other CD8^+ epitopes, associated specific HLA class I genes.

## NEFPAIDLF (listed as Plasmodium falciparum) [Epitope 2]
[1]
  CD8^+ T cell IFN-γ response in ICS: equal or more CD8^+ IFN-γ than the parent peptide pool

## HPKEYEYPL (listed as Plasmodium falciparum) [Epitope 9]
[1]
  CD8^+ T cell IFN-γ response in ICS: equal or more CD8^+ IFN-γ than the parent peptide pool

## NEVVVKEEY [Epitope 1, NEVVVKEEY]
[1]
  CD8^+ T cell IFN-γ response in ICS: equal or more CD8^+ IFN-γ than the parent peptide pool

## TLDEMRHFY [Epitope 8]
[1]
  CD8^+ T cell IFN-γ response in ICS: equal or more CD8^+ IFN-γ than the parent peptide pool

## RYKSHGKGY (listed as Plasmodium falciparum) [Epitope 14]
[1]
  CD8^+ T cell IFN-γ response in ICS: very weak CD8^+ IFN-γ responses
  multifunctional CD8^+ T cell responses in ICS: did not appear to induce multifunctional responses

## KSHGKGYNW (listed as Plasmodium falciparum)
PBMC [2]; Vol. 1550-10
  Unfract. PBMC: 159 SFC/10^6
PBMC [2]; Vol. 1550-18
  Unfract. PBMC: 181 SFC/10^6

## ETQKCEIFNV (listed as Plasmodium falciparum) [Epitope 10]
[1]
  CD8^+ T cell IFN-γ response in ICS: very weak CD8^+ IFN-γ responses
  multifunctional CD8^+ T cell responses in ICS: did not appear to induce multifunctional responses

## YKSHGKGYNW (listed as Plasmodium falciparum)
PBMC [2]; Vol. 1550-10
  Unfract. PBMC: 144 SFC/10^6
PBMC [2]; Vol. 1550-18
  Unfract. PBMC: 271 SFC/10^6

## REHPKEYEYPLHQEH [Ap1-12]
PBMC [3]; Volunteer 002
  IFN-γ ELISpot activity of individual 15-mer peptide: 66 SFC/10^6
PBMC [3]; Volunteer 005
  IFN-γ ELISpot activity of individual 15-mer peptide: 118 SFC/10^6
[1]; v001 and v005, FIG. 3
  CD4^+ versus CD8^+ T cell IFN-γ response (ICS and ELISpot depletion, words): strongly recognized by CD8^+ T cells; also recorded: induced both CD4^+ and CD8^+ T cell responses
[4]; 4 wk post challenge
  CD4^+ depletion % change: 78%
  CD8^+ Depletion % change: 70%
  CD4^+ depletion, test: 28 SFC/10^6
  CD8^+ Depletion, test: 37 SFC/10^6
  CD4^+ depletion, control: 126 SFC/10^6
  CD8^+ Depletion, control: 126 SFC/10^6
[4]; Pre-challenge
  CD4^+ depletion % change: 59%
  CD8^+ Depletion % change: 49%
  CD4^+ depletion, test: 67 SFC/10^6
  CD8^+ Depletion, test: 83 SFC/10^6
  CD4^+ depletion, control: 161 SFC/10^6
  CD8^+ Depletion, control: 161 SFC/10^6
[4]; summary of Table 6
  reduction in ELISpot response after depletion of CD8^+ T-cells: 49-66%
